From PubChem BioAssay AID248 (DTP/NCI, 2004)
Values joined by “and” are separate entries in the source; they are usually repeats but may differ in a detail not shown here. Equal entries are not always repeated. Toxic doses and inconclusive results are not listed. Rule as the data show it: active = T/C of 150% or more; inactive = T/C below 125%.

System: L1210 leukemia ip in BDF1 mice, survival T/C
Assay: NCI In Vivo Anticancer Drug Screen. Data for tumor model L1210 Leukemia (intraperitoneal) in B6D2F1 (BDF1) mice
Conditions: endpoint: mean survival time, higher = longer survival
How it was run: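 Tumor was transplanted into mice, which were then dosed with test compound or vehicle alone. Survival was recorded for each group, and the treated figure was expressed relative to the control figure.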

[1] = dose: 100.0 mg/kg/injection, schedule: Q01DX009 (ip), vehicle: Klucel (hydroxypropylcellulose) (HPC)
[2] = dose: 200.0 mg/kg/injection, schedule: Q01DX009 (ip), vehicle: Klucel (hydroxypropylcellulose) (HPC)
[3] = dose: 400.0 mg/kg/injection, schedule: Q01DX009 (ip), vehicle: Klucel (hydroxypropylcellulose) (HPC)
[4] = dose: 50.0 mg/kg/injection, schedule: Q01DX009 (ip), vehicle: saline with Tween-80
[5] = dose: 100.0 mg/kg/injection, schedule: Q01DX009 (ip), vehicle: saline with Tween-80
[6] = dose: 200.0 mg/kg/injection, schedule: Q01DX009 (ip), vehicle: saline with Tween-80
[7] = dose: 100.0 mg/kg/injection, schedule: Q04DX003 (ip), vehicle: Klucel (hydroxypropylcellulose) (HPC)
[8] = dose: 200.0 mg/kg/injection, schedule: Q04DX003 (ip), vehicle: Klucel (hydroxypropylcellulose) (HPC)
[9] = dose: 400.0 mg/kg/injection, schedule: Q04DX003 (ip), vehicle: Klucel (hydroxypropylcellulose) (HPC)
[10] = dose: 100.0 mg/kg/injection, schedule: Q01DX009 (ip), vehicle: saline
[11] = dose: 400.0 mg/kg/injection, schedule: Q01DX009 (ip), vehicle: saline with Tween-80
[12] = dose: 100.0 mg/kg/injection, schedule: Q01DX Z (ip), vehicle: methylcellulose (MC)
[13] = dose: 200.0 mg/kg/injection, schedule: Q01DX Z (ip), vehicle: methylcellulose (MC)
[14] = dose: 50.0 mg/kg/injection, schedule: Q01DX009 (ip), vehicle: Klucel (hydroxypropylcellulose) (HPC)
[15] = dose: 100.0 mg/kg/injection, schedule: Q01DX001 (ip), vehicle: saline
[16] = dose: 100.0 mg/kg/injection, schedule: Q04DX003 (ip), vehicle: saline
[17] = dose: 200.0 mg/kg/injection, schedule: Q01DX001 (ip), vehicle: saline
[18] = dose: 200.0 mg/kg/injection, schedule: Q04DX003 (ip), vehicle: saline
[19] = dose: 400.0 mg/kg/injection, schedule: Q01DX001 (ip), vehicle: saline
[20] = dose: 400.0 mg/kg/injection, schedule: Q04DX003 (ip), vehicle: saline
[21] = dose: 100.0 mg/kg/injection, schedule: Q04DX003 (ip), vehicle: saline with Tween-80
[22] = dose: 200.0 mg/kg/injection, schedule: Q04DX003 (ip), vehicle: saline with Tween-80
[23] = dose: 400.0 mg/kg/injection, schedule: Q04DX003 (ip), vehicle: saline with Tween-80
[24] = dose: 200.0 mg/kg/injection, schedule: Q01DX009 (ip), vehicle: saline
[25] = dose: 400.0 mg/kg/injection, schedule: Q01DX009 (ip), vehicle: saline

Measured: T/C

O=[N+]([O-])c1cccc(Oc2ncccc2[N+](=O)[O-])c1
inactive: [1] 95 % of control | dose: 100.0 mg/kg/injection, schedule: Q04DX003 (ip), vehicle: other 105 % of control | [2] 102 % of control | dose: 200.0 mg/kg/injection, schedule: Q04DX003 (ip), vehicle: other 103 % of control | [3] 94 % of control | dose: 400.0 mg/kg/injection, schedule: Q04DX003 (ip), vehicle: other 100 % of control

CN(C)C(=S)SC1OC(CO)C(SC(=S)N(C)C)OC1CO (centres undefined)
inactive: [4] 97 % of control | [5] 104 % of control | [6] 97 % of control

COc1cc2ccc(CC(=O)NCCc3ccc4c(c3)OCO4)cc2cc1OC
inactive: [1] 97 % of control | [7] 97 % of control | [2] 90 % of control | [8] 102 % of control | [3] 93 % of control | [9] 91 % of control

Cc1cc(C)c[n+](Cc2ccccc2Cl)c1
inactive: dose: 12.5 mg/kg/injection, schedule: Q01DX001 (ip), vehicle: saline 102 % of control | dose: 25.0 mg/kg/injection, schedule: Q01DX001 (ip), vehicle: saline 96 % of control

CCC(=O)OC(CC=C(C)C)(c1ccccc1)C(C)CN(C)C (centres undefined)
inactive: [10] 100 % of control

COc1cccc(C(Cc2ccccc2)NCc2ccccc2)c1 (centres undefined)
inactive: [1] 91 % of control | [2] 91 % of control | [3] 96 % of control

NC(N)=NS(=O)(=O)c1ccc(N)cc1
inactive: [5] 98 % of control | [6] 95 % of control | [11] 91 % of control

Nc1cc(C(=O)O)[nH]c(=S)n1
inactive: [12] 100 % of control | [13] 100 % of control

CCCCCCCCCC(=O)NN=C(C)C
inactive: dose: 12.5 mg/kg/injection, schedule: Q01DX009 (ip), vehicle: Klucel (hydroxypropylcellulose) (HPC) 92 % of control | dose: 25.0 mg/kg/injection, schedule: Q01DX009 (ip), vehicle: Klucel (hydroxypropylcellulose) (HPC) 105 % of control | [14] 116 % of control

COC(CN)C(Cl)(Cl)Cl (centres undefined)
inactive: [15] 98 % of control | dose: 100.0 mg/kg/injection, schedule: Q04DX002 (ip), vehicle: saline 96 % of control and 89 % of control | [16] 98 % of control | [17] 107 % of control | dose: 200.0 mg/kg/injection, schedule: Q04DX002 (ip), vehicle: saline 94 % of control and 100 % of control | [18] 107 % of control | [19] 96 % of control | dose: 400.0 mg/kg/injection, schedule: Q04DX002 (ip), vehicle: saline 96 % of control and 100 % of control | [20] 106 % of control

CC(=O)Nc1ccc(-c2ccc(C)cc2)cc1
inactive: [21] 104 % of control | [22] 106 % of control | [23] 95 % of control

Cc1cccc(Cl)c1NC(=O)COc1ccc(Cl)cc1
inactive: [1] 102 % of control | [2] 89 % of control | [3] 93 % of control

N=C(N=c1cc(C(=O)NC(=N)NC(=N)Nc2ccccc2)n(C(=N)NC(=N)Nc2ccccc2)c(C(=O)NC(=N)NC(=N)Nc2ccccc2)c1)NC(=N)Nc1ccccc1
inactive: [10] 105 % of control | [24] 94 % of control | [25] 87 % of control

Cc1noc(C)c1CON
inactive: dose: 75.0 mg/kg/injection, schedule: Q01DX001 (ip), vehicle: saline 100 % of control and 102 % of control | dose: 150.0 mg/kg/injection, schedule: Q01DX001 (ip), vehicle: saline 105 % of control | dose: 300.0 mg/kg/injection, schedule: Q01DX001 (ip), vehicle: saline 94 % of control and 91 % of control

COc1ccc(N)c(CC2c3ccccc3CCN2C)c1 (centres undefined)
inactive: dose: 10.0 mg/kg/injection, schedule: Q01DX001 (ip), vehicle: carboxymethylcellulose (CMC) 103 % of control | dose: 20.0 mg/kg/injection, schedule: Q01DX001 (ip), vehicle: carboxymethylcellulose (CMC) 105 % of control | dose: 40.0 mg/kg/injection, schedule: Q01DX001 (ip), vehicle: carboxymethylcellulose (CMC) 105 % of control | dose: 80.0 mg/kg/injection, schedule: Q01DX001 (ip), vehicle: carboxymethylcellulose (CMC) 100 % of control | dose: 100.0 mg/kg/injection, schedule: Q01DX001 (ip), vehicle: carboxymethylcellulose (CMC) 96 % of control

CN(C(=O)c1ccc([N+](=O)[O-])cc1)C(c1ccco1)P(=O)(c1ccccc1)c1ccccc1 (centres undefined)
inactive: [5] 90 % of control | dose: 100.0 mg/kg/injection, schedule: Q04DX002 (ip), vehicle: saline with Tween-80 96 % of control | [6] 87 % of control | dose: 200.0 mg/kg/injection, schedule: Q04DX002 (ip), vehicle: saline with Tween-80 86 % of control | [11] 90 % of control | dose: 400.0 mg/kg/injection, schedule: Q04DX002 (ip), vehicle: saline with Tween-80 93 % of control

CCCCCCN(/N=C\C(=O)O)C(N)=O
inactive: [4] 103 % of control | [5] 88 % of control | [6] 98 % of control

CCOC(=O)C1C(=O)C(C(C2C(=O)C(C(=O)OCC)C(c3ccc(O)cc3)C(C(=O)OCC)C2=O)C(O)C(O)C(O)CO)C(=O)C(C(=O)OCC)C1c1ccc(O)cc1 (centres undefined) (tested in a mixture with another compound)
inactive: [14] 101 % of control and 96 % of control | [1] 93 % of control and 96 % of control | [2] 104 % of control and 107 % of control

CC(C)(CO)N=Cc1cccc(Br)c1
inactive: [15] 96 % of control | [17] 98 % of control | [19] 98 % of control

O=C(Nc1ccc(I)cc1)c1cc([N+](=O)[O-])ccc1O
inactive: dose: 17.0 mg/kg/injection, schedule: Q02DX010 (ip), vehicle: carboxymethylcellulose (CMC) 99 % of control | dose: 34.0 mg/kg/injection, schedule: Q02DX010 (ip), vehicle: carboxymethylcellulose (CMC) 103 % of control | dose: 68.0 mg/kg/injection, schedule: Q02DX010 (ip), vehicle: carboxymethylcellulose (CMC) 97 % of control | dose: 136.0 mg/kg/injection, schedule: Q02DX010 (ip), vehicle: carboxymethylcellulose (CMC) 95 % of control | dose: 272.0 mg/kg/injection, schedule: Q02DX010 (ip), vehicle: carboxymethylcellulose (CMC) 98 % of control

CCN(CC)c1ccc(Cc2ccc(N(CC)CC)cc2Br)c(Br)c1
inactive: [1] 100 % of control | [7] 96 % of control | [2] 105 % of control | [8] 104 % of control | [3] 107 % of control | [9] 94 % of control

CC(=O)OC1CCC2(C)C(=CCC3C2CCC2(C)C(/C(C)=N/O)=CCC32)C1 (centres undefined)
inactive: [5] 96 % of control | [6] 100 % of control | [11] 91 % of control

CC(=O)OCC1OC(N2C(=O)/C(=C/c3cccs3)SC2=S)C(OC(C)=O)C(OC(C)=O)C1OC(C)=O (centres undefined)
inactive: dose: 25.0 mg/kg/injection, schedule: Q01DX005 (ip), vehicle: other 96 % of control | dose: 50.0 mg/kg/injection, schedule: Q01DX005 (ip), vehicle: other 100 % of control | dose: 100.0 mg/kg/injection, schedule: Q01DX005 (ip), vehicle: other 97 % of control | dose: 200.0 mg/kg/injection, schedule: Q01DX005 (ip), vehicle: other 88 % of control

CCC1=C(C)C(C)OC(C)=C1C (centres undefined) (tested in a mixture with another compound)
inactive: [15] 93 % of control | [17] 90 % of control | [19] 93 % of control

O=C1C=C(C(=O)O)CO1
inactive: [1] 95 % of control

COc1ccc(Br)c(CCC(C)C)c1OC
inactive: [1] 92 % of control | [7] 108 % of control | [2] 95 % of control | [8] 108 % of control | [3] 101 % of control | [9] 104 % of control

CC(NC(=O)Cc1ccccc1)C(=O)NN (centres undefined)
inactive: [10] 100 % of control | [24] 102 % of control | [25] 91 % of control

CCN(CC)c1ccnc(SCc2ccccc2)n1
inactive: [12] 89 % of control | [13] 89 % of control

S=C(S)NCCNC(=S)S
inactive: [21] 93 % of control | [16] 95 % of control | [22] 90 % of control | [18] 97 % of control | [23] 87 % of control | [20] 101 % of control
